Laboratory results taken from patent EP3168211A1, “PHARMACEUTICAL CO-CRYSTALS OF NICLOSAMIDE” (Westfälische Wilhelms-Universität Münster, priority 2015, dated 2017).
≈ marks a conversion by molar mass, not a printed value.

How the values were obtained:
physchem = settings: 37 °C, aqueous with cosolvent or surfactant or cyclodextrin, thermodynamic from solid
Description: (§1) Solubility Experiments: The quantification of NCL was validated using a Phenomenex Gemini-NX HPLC-UV/vis and a C18 column (250 mm x 4.6 mm, 5 mm particle diameter). […] The considered concentration range of known NCL was in between 0.5-100 µg/mL. The flow rate and the injection volume was set to 1.0 mL/min and 50 µL, respectively. The limit of detection was 0.1 µg/mL and the limit of quantification 0.5 µg/mL. The absorbance was measured at 254 nm. The equilibrium solubility was determined in 40% isopropanol-water medium using a shake-flask method. Accordingly, each solid sample containing 50 mg of NCL was stirred for 24 h in 2.5 mL of the medium at 37°C, and the absorbance was measured at 337 nm. The concentration of the saturated solution was calculated after 24 h which is referred to as the equilibrium solubility of the stable solid form.
(§2) The corresponding equilibrium solubility of NCL, its novel co-crystals and some reference compounds was determined following established procedures. […] In order to allow for a better comparability of the determined solubility values, the amount of NCL actually present in the tested co-crystals was normalized to 50 mg per sample, therefore adjusting the initially weighted sample accordingly.

[1] = male Sprague-Dawley rats; cited from earlier work
[2] = solubility factor relative to NCL reported by P. Sanphui et al.; weights not normalized to the amount of NCL; cited from earlier work
[3] = for factor: equilibrium solubility relative to pristine NCL; for factor / Solubility at 37° C (24 h) in 40% isopropanol-water mixture: 37°C, 24 h, 40% isopropanol-water; for Solubility at 37° C (24 h) in 40% isopropanol-water mixture: equilibrium solubility, shake-flask, sample normalized to 50 mg of NCL in 2.5 mL; for increase of the equilibrium solubility: result in words, versus pristine NCL
Description: as §1, §2

## O=C(Nc1ccc([N+](=O)[O-])cc1Cl)c1cc(Cl)ccc1O [NCL, 2',5-dichloro-4'-nitrosalicylanilide]
physchem
  solubility at 24 h: 87.2 µg/mL (≈ 266 µM)
[1]
  oral bioavailability: 10%

## Niclosamide - isonicotinamide [NCL-IA]
[2]
  factor*: 1.7
[3]
  factor: 1.3
  Solubility at 37° C (24 h) in 40% isopropanol-water mixture: 113.45 µg/mL

## Niclosamide - acetamide [NCL-AA-I]
[3]
  factor: 1.4
  increase of the equilibrium solubility: moderate increase

## Niclosamide - isoniazide [NCL-IN]
[3]
  increase of the equilibrium solubility: moderate increase

## Niclosamide - nicotinamide [NCL-NA]
[2]
  factor*: 1.2
[3]
  factor: 1.3
  Solubility at 37° C (24 h) in 40% isopropanol-water mixture: 114.45 µg/mL
